Measured values as given in patent publication US9918974B2, “Pyridone derivatives as rearranged during transfection (RET) kinase inhibitors” (GlaxoSmithKline Intellectual Property Development Limited, priority 2014, dated 2018).

Target: Human RET kinase (Homo sapiens (Human), UniProt P07949, C634W)
Experiment: RET kinase cell-based mechanistic assay (constitutive RET kinase phosphorylation in TT cells)
Conditions: 2 h treatment, phospho-RET ELISA
Experimental: RET Kinase Cell-Based Mechanistic Assay
The potency of the compounds of the invention were tested for its ability to inhibit constitutive RET kinase phosphorylation in cell-based assay. TT cells (ATCC CRL-1803), a medullary thyroid cancer cell line with constitutively activated RET kinase, were maintained in 150 cm^2 dishes in F12 Kaighn's medium, 10% fetal bovine serum, 1× Glutamax, 1× non-essential amino acids, 1× Pen/Strep antibiotics at 37° C. in 5% carbon dioxide. 1.0E5 TT cells/well were plated in a 96-well cell culture plate and allowed to adhere overnight. […] Plates were washed 4× with 200 μL of 1×PBS; 0.05% Tween-20, 100 μL of TMB (3,3′,5,5″-tetramethylbenzidine) substrate (Cell Signaling #7004) was added, incubated for 10 minutes at 37° C., 100 μL of Stop solution (Cell Signaling #7002) was added and absorbance read on a spectrophotometer at 450 nm. […]

Chain of Human RET kinase (P07949 29-1114 C634W): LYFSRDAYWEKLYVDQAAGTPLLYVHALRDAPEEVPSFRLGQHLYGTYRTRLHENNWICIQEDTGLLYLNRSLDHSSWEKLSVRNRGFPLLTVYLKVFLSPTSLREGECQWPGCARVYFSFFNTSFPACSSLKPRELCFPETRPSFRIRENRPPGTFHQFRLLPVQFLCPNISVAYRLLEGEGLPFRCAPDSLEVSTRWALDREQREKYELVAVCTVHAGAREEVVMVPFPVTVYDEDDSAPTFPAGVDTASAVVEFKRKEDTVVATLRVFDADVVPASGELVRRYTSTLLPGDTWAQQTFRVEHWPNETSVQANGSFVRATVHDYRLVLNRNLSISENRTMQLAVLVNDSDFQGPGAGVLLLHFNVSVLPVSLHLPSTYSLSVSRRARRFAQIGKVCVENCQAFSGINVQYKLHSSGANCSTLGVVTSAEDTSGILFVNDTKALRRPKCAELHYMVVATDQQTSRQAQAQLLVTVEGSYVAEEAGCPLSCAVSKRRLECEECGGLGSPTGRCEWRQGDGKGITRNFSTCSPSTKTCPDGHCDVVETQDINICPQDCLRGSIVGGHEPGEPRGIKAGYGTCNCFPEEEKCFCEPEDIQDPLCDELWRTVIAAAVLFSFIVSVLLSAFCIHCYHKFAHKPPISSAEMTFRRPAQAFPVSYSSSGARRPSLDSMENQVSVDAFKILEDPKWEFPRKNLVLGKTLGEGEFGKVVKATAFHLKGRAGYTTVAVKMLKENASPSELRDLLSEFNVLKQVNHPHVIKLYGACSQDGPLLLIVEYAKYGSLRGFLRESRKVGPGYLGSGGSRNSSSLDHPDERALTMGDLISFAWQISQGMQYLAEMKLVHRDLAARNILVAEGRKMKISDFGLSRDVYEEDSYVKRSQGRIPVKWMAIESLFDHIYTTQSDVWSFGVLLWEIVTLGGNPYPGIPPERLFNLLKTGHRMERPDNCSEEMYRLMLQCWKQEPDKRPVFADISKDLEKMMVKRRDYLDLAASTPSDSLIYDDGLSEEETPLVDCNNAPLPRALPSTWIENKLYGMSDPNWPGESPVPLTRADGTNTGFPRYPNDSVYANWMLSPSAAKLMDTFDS

SMILES	IC50 [nM]
CCOc1cc(=O)[nH]cc1-c1ccc(CC(=O)Nc2cc(OCCN(C)C)cc(C(F)(F)F)c2)c(F)c1 [Example 2, N-(3-(2-(dimethylamino)ethoxy)-5-(trifluoromethyl)phenyl)-2-(4-(4-ethoxy-6-oxo-1,6-dihydropyridin-3-yl)-2-fluorophenyl)acetamide]	10 to 100
CCOc1cc(=O)[nH]cc1-c1ccc(CC(=O)Nc2cc(C(=O)NCCN(C)C)cc(C(F)(F)F)c2)c(F)c1 [Example 1, N-(2-(dimethylamino)ethyl)-3-(2-(4-(4-ethoxy-6-oxo-1,6-dihydropyridin-3-yl)-2-fluorophenyl)acetamido)-5-(trifluoromethyl)benzamide]	10 to 100
